Reference: US11718605B2, “Heterocyclic compounds as immunomodulators” (Incyte Corporation, priority 2016, dated 2023)
pIC50: −log10 of the molar value.

Target: PD-1/PD-L1 protein/protein interaction (Homo sapiens (Human), UniProt Q9NZQ7)
Assay: PD-1/PD-L1 Homogeneous Time-Resolved Fluorescence (HTRF) Binding Assay
Conditions: recombinant human PD-L1 (19-238) His-tag 10 nM, human PD-1 (25-167) Fc tag 3 nM; 25° C., PBS pH 7.4
Description: Example A. PD-1/PD-L1 Homogeneous Time-Resolved Fluorescence (HTRF) Binding Assay
The assays were conducted in a standard black 384-well polystyrene plate with a final volume of 20 μL. Inhibitors were first serially diluted in DMSO and then added to the plate wells before the addition of other reaction components. The final concentration of DMSO in the assay was 1%. The assays were carried out at 25° C. in the PBS buffer (pH 7.4) with 0.05% Tween-20 and 0.1% BSA. Recombinant human PD-L1 protein (19-238) with a His-tag at the C-terminus was purchased from AcroBiosystems (PD1-H5229). Recombinant human PD-1 protein (25-167) with Fc tag at the C-terminus was also purchased from AcroBiosystems (PD1-H5257). PD-L1 and PD-1 proteins were diluted in the assay buffer and 10 μL was added to the plate well. Plates were centrifuged and proteins were preincubated with inhibitors for 40 minutes. The incubation was followed by the addition of 10 μL of HTRF detection buffer supplemented with Europium cryptate-labeled anti-human IgG (PerkinElmer-AD0212) specific for Fc and anti-His antibody conjugated to SureLight®-Allophycocyanin (APC, PerkinElmer-AD0059H). After centrifugation, the plate was incubated at 25° C. for 60 min. before reading on a PHERAstar FS plate reader (665 nm/620 nm ratio). Final concentrations in the assay were—3 nM PD1, 10 nM PD-L1, 1 nM europium anti-human IgG and 20 nM anti-His-Allophycocyanin. IC50 determination was performed by fitting the curve of percent control activity versus the log of the inhibitor concentration using the GraphPad Prism 5.0 software.

Sequence of PD-1/PD-L1 protein/protein interaction (Q9NZQ7 19-238): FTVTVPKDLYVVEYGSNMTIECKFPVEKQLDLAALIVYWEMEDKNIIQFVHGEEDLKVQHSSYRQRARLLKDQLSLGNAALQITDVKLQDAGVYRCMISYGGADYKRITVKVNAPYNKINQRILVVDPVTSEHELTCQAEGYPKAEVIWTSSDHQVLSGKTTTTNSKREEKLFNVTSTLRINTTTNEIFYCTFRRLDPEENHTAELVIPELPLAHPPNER

| Compound | pIC50 |
| --- | --- |
| Cn1cc(CNCCO)cc(C(=O)Nc2cccc(C3CCCCC3)c2C#N)c1=O [Example 3, N-(2-cyano-3-cyclohexylphenyl)-5-{[(2-hydroxyethyl)amino]methyl}-1-methyl-2-oxo-1,2-dihydropyridine-3-carboxamide] | 6.30 to 7.00 |
| Cn1cc(CNCCO)cc(C(=O)Nc2cccc(-c3ccc4c(c3)OCCO4)c2C#N)c1=O [Example 4, N-[2-cyano-3-(2,3-dihydro-1,4-benzodioxin-6-yl)phenyl]-5-{[(2-hydroxyethyl)amino]methyl}-1-methyl-2-oxo-1,2-dihydropyridine-3-carboxamide] | ≥ 7.00 |
| COc1cccc(-c2cccc(NC(=O)c3cc(CNCCO)cn(C)c3=O)c2C#N)c1 [Example 5, N-(2-cyano-3′-methoxybiphenyl-3-yl)-5-{[(2-hydroxyethyl)amino]methyl}-1-methyl-2-oxo-1,2-dihydropyridine-3-carboxamide] | ≥ 7.00 |
| CCn1cc(CN2CCCC[C@H]2C(=O)O)cc(C(=O)Nc2cccc(-c3ccccc3)c2C)c1=O [Example 9, (2S)-1-[(1-ethyl-5-{[(2-methylbiphenyl-3-yl)amino]carbonyl}-6-oxo-1,6-dihydropyridin-3-yl)methyl]piperidine-2-carboxylic acid] | 5.00 to 6.30 |
| Cc1c(NC(=O)c2cc(CNCCO)cn(C)c2=O)cccc1-c1cccc2c1cnn2C [Example 11, 5-{[(2-hydroxyethyl)amino]methyl}-1-methyl-N-[2-methyl-3-(1-methyl-1H-indazol-4-yl)phenyl]-2-oxo-1,2-dihydropyridine-3-carboxamide] | ≥ 7.00 |
| Cc1c(NC(=O)c2cc(CNCCO)cn(C)c2=O)cccc1-c1ccc2c(c1)OCCO2 [Example 13, N-[3-(2,3-dihydro-1,4-benzodioxin-6-yl)-2-methylphenyl]-5-{[(2-hydroxyethyl)amino]methyl}-1-methyl-2-oxo-1,2-dihydropyridine-3-carboxamide] | ≥ 7.00 |

More lines, now with the values ahead:

| pIC50 | Compound |
| --- | --- |
| ≥ 7.00 | Cc1c(NC(=O)c2cc(CN3CCCC[C@H]3C(=O)O)cn(C)c2=O)cccc1-c1ccccc1 [Example 1, (2S)-1-[(1-methyl-5-{[(2-methylbiphenyl-3-yl)amino]carbonyl}-6-oxo-1,6-dihydropyridin-3-yl)methyl]piperidine-2-carboxylic acid] |
| ≥ 7.00 | Cc1c(NC(=O)c2cc(CNCCO)cn(C)c2=O)cccc1-c1ccccc1 [Example 2, 5-{[(2-hydroxyethyl)amino]methyl}-1-methyl-N-(2-methylbiphenyl-3-yl)-2-oxo-1,2-dihydropyridine-3-carboxamide] |
| ≥ 7.00 | Cn1cc(CNCCO)cc(C(=O)Nc2cccc(-c3ccccc3F)c2C#N)c1=O [Example 6, N-(2-cyano-2′-fluorobiphenyl-3-yl)-5-{[(2-hydroxyethyl)amino]methyl}-1-methyl-2-oxo-1,2-dihydropyridine-3-carboxamide] |
| 6.30 to 7.00 | Cn1cc(CNCCO)cc(C(=O)Nc2cccc(-c3ccccc3)c2C#N)c1=O [Example 7, N-(2-cyanobiphenyl-3-yl)-5-{[(2-hydroxyethyl)amino]methyl}-1-methyl-2-oxo-1,2-dihydropyridine-3-carboxamide] |
| ≥ 7.00 | Cn1cc(CNCCO)cc(C(=O)Nc2cccc(-c3cccc4c3cnn4C)c2C#N)c1=O [Example 8, N-(2-cyano-3-(1-methyl-1H-indazol-4-yl)phenyl)-5-((2-hydroxyethylamino)methyl)-1-methyl-2-oxo-1,2-dihydropyridine-3-carboxamide] |
| 6.30 to 7.00 | CCn1cc(CNCCO)cc(C(=O)Nc2cccc(-c3ccccc3)c2C)c1=O [Example 10, 1-ethyl-5-{[(2-hydroxyethyl)amino]methyl}-N-(2-methylbiphenyl-3-yl)-2-oxo-1,2-dihydropyridine-3-carboxamide] |
| ≥ 7.00 | COc1cccc(-c2cccc(NC(=O)c3cc(CNCCO)cn(C)c3=O)c2C)c1F [Example 12, N-(2′-fluoro-3′-methoxy-2-methylbiphenyl-3-yl)-5-((2-hydroxyethylamino)methyl)-1-methyl-2-oxo-1,2-dihydropyridine-3-carboxamide] |
